Values after ≈ are worked out from the molar mass of the structure shown. Read-outs that look alike come from different tables or passages of the source.
Assays:
MRSA MW2 (USA400) = experiment: In vitro susceptibility, broth microdilution (MIC); assay type: cell-based, methicillin resistant S. aureus; conditions: Staphylococcus aureus; MRSA MW2 (USA400); read-out: Antimicrobial activity (MIC) MSRA USA400
Summary of the method: (§1)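 MIC determined by CLSI 2-fold broth microdilution in cation-adjusted Mueller–Hinton broth at ~2.5×10^5 CFU/ml, final compound 0.031–64 μg/ml, 18–24 h at 37 °C. MIC is the lowest concentration giving complete growth inhibition by background-corrected OD600 versus compound-free wells; duplicate or triplicate wells, replicated at least twice.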

S. aureus (ATCC29213) = experiment: In vitro susceptibility, broth microdilution (MIC); assay type: cell-based; conditions: Staphylococcus aureus; S. aureus ATCC29213; 18-24 h, 37 C; read-out: Antimicrobial activity (MIC) S. aureus ATCC29213
Summary of the method: (§2)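 CLSI 2-fold serial broth microdilution; K. pneumoniae C238 grown in L-broth, S. aureus ATCC 29213 in Mueller Hinton broth, plates incubated 18–24 h at 37 °C. MIC taken as lowest concentration giving complete growth inhibition by OD600 versus compound-free wells, background-subtracted.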

K. pneumoniae (C238) = experiment: In vitro susceptibility, broth microdilution (MIC); assay type: cell-based; conditions: Klebsiella pneumoniae, read-out: Antimicrobial activity (MIC) K. pneumoniae
Summary of the method: as §2

MRSA Pyk = target: T1, MRSA Pyk (Staphylococcus aureus, UniProt Q6GG09); experiment: MRSA pyruvate kinase (PK) activity, continuous LDH-coupled assay; assay type: biochemical, methicillin resistant S. aureus (MRSA252)
T1 construct: made in house; host or cells: E. coli BL-21 (DE3)
T1 sequence (Q6GG09 whole entry): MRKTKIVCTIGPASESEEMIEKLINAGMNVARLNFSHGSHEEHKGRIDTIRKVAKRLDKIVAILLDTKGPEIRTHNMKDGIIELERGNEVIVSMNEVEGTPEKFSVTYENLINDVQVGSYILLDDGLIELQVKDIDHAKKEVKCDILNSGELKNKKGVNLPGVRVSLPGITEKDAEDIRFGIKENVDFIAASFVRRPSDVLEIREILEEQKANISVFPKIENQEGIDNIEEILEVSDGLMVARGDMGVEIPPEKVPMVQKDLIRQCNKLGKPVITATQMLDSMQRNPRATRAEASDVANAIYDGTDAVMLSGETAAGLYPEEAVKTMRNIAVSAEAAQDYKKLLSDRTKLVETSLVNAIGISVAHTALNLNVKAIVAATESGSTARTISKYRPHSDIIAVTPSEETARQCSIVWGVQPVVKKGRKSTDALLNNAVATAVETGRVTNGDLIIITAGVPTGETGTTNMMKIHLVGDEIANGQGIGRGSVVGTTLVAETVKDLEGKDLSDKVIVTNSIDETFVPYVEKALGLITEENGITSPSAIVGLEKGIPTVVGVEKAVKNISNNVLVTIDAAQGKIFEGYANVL
Summary of the method: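 Activity monitored continuously as absorbance change at 340 nm from NADH oxidation via coupled lactate dehydrogenase, reactions started with 15 nM recombinant His-tagged PK (MRSA or human isoform) and run at 30° C for up to 5 min. Ki derived by varying inhibitor (0-400 nM) and PEP (2-20 mM) at 2 mM ADP; IC50 by four-parameter fitting.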

VRE#2 (2010A) = experiment: In vitro susceptibility, broth microdilution (MIC); assay type: cell-based, vancomycin resistant Enterococci; conditions: VRE#2 (2010A); read-out: Antimicrobial activity (MIC) VRE#2
Summary of the method: as §1

[1] = system: A. baumannii (ATCC 17978); experiment: In vitro susceptibility, broth microdilution (MIC); assay type: cell-based; conditions: Acinetobacter baumannii, ATCC17978; A. baumannii ATCC 17978 (values marked *); read-out: Antimicrobial activity (MIC) A. baumannii
Summary of the method: as §1

MRSA (ATCC BAA-1762) = experiment: In vitro susceptibility, broth microdilution (MIC); assay type: cell-based, methicillin resistant S. aureus; conditions: Staphylococcus aureus; MRSA ATCC BAA-1762; read-out: Antimicrobial activity (MIC) MRSA ATCC BAA1762
Summary of the method: as §1

[2] = system: A. baumannii (ATCC 19606); experiment: In vitro susceptibility, broth microdilution (MIC); assay type: cell-based; conditions: Acinetobacter baumannii, ATCC19606; A. baumannii ATCC 19606 (values without asterisk); read-out: Antimicrobial activity (MIC) A. baumannii
Summary of the method: as §1

| Compound | MIC (MRSA MW2 (USA400)) | MIC (S. aureus (ATCC29213)) | MIC (K. pneumoniae (C238); K. pneumoniae (C238)) | IC50 (MRSA Pyk) | MIC (VRE#2 (2010A)) | MIC (K. pneumoniae (C238)) | MIC [1] | MIC (MRSA (ATCC BAA-1762)) | MIC [2] |
| --- | --- | --- | --- | --- | --- | --- | --- | --- | --- |
| CN(C)CCNC(=O)CCCC(=O)c1c(-c2cc3cc(Cl)ccc3[nH]2)[nH]c2cc(Br)ccc12 [Compound 107, 5-(6-bromo-5′-chloro-1H,1′H-[2,2′-biindol]-3-yl)-N-(2-(dimethylamino)ethyl)-5-oxopentanamide] | 4 µg/mL (≈ 7.55 µM) | 4 µg/mL (≈ 7.55 µM) | 4 µg/mL (≈ 7.55 µM) | < 100 nM | 4 µg/mL (≈ 7.55 µM) | – | – | – | – |
| CC(C)c1nc2c(cc1-c1ccc(Cl)cc1)[nH]c1cc(Br)ccc12 [Compound 114, 7-bromo-3-(4-chlorophenyl)-2-isopropyl-5H-pyrido[3,2-b]indole] | 8 µg/mL (≈ 20 µM) | 32 µg/mL (≈ 80.1 µM) | 8 µg/mL (≈ 20 µM) | 100 to 1000 nM | 4 µg/mL (≈ 10 µM) | – | – | – | – |
| CNC(=O)C(=O)c1c(/C=C/c2ccc(Cl)cc2)[nH]c2cc(Br)ccc12 [Compound 87, (E)-2-(6-bromo-2-(4-chlorostyryl)-1H-indol-3-yl)-N-methyl-2-oxoacetamide] | > 64 µg/mL | > 64 µg/mL | > 64 µg/mL | < 100 nM | > 64 µg/mL | – | – | – | – |
| CN1CCN(CCCNC(=O)c2c(/C=C/c3ccc(Cl)cc3)[nH]c3cc(Br)ccc23)CC1 [Compound 43, (E)-6-Bromo-2-(4-chlorostyryl)-N-(3-(4-methylpiperazin-1-yl)propyl)-1 H-indole-3-carboxamide] | 32 µg/mL (≈ 62 µM) | 32 µg/mL (≈ 62 µM) | 32 µg/mL (≈ 62 µM) | < 100 nM | 16 µg/mL (≈ 31 µM) | – | – | – | – |
| CN(C)CCc1c(-c2cc3cc(Cl)ccc3[nH]2)[nH]c2cc(Br)ccc12 [Compound 77, 2-(6-Bromo-5′-chloro-1H,1′H-[2,2′-biindol]-3-yl)-N,N-dimethylethan-1-amine] | 4 µg/mL (≈ 9.6 µM) | 4 µg/mL (≈ 9.6 µM) | – | < 100 nM | – | 4 µg/mL (≈ 9.6 µM) | – | – | – |
| CN1CCN(CCCCNC(=O)c2c(/C=C/c3ccc(Cl)cc3)[nH]c3cc(Br)ccc23)CC1 [Compound 44, (E)-6-Bromo-2-(4-chlorostyryl)-N-(4-(4-methylpiperazin-1-yl)butyl)-1 H-indole-3-carboxamide] | 32 µg/mL (≈ 60.4 µM) | 32 µg/mL (≈ 60.4 µM) | 32 µg/mL (≈ 60.4 µM) | 100 to 1000 nM | 16 µg/mL (≈ 30.2 µM) | – | – | – | – |
| CN(C)CCNC(=O)c1c(NC(=O)c2ccc(Cl)cc2)[nH]c2cc(Br)ccc12 [Compound 84, 6-Bromo-2-(4-chlorobenzamido)-N-(2-(dimethylamino)ethyl)-1H-indole-3-carboxamide] | > 64 µg/mL | 64 µg/mL (≈ 138 µM) | 16 µg/mL (≈ 34.5 µM) | – | – | – | – | – | – |
| Clc1ccc(-c2cc3[nH]c4cc(Br)ccc4c3nc2-c2ccccc2)cc1 [Compound 112, 7-bromo-3-(4-chlorophenyl)-2-phenyl-5H-pyrido[3,2-b]indole] | – | 32 µg/mL (≈ 73.8 µM) | > 64 µg/mL | 100 to 1000 nM | > 64 µg/mL | – | > 64 µg/mL | – | – |
| Oc1cc(/C=C/c2cc3ccc(Br)cc3[nH]2)ccc1Cl [Compound 11, (E)-5-(2-(6-bromo-1H-indol-2-yl)vinyl)-2-chlorophenol] | 2 µg/mL (≈ 5.74 µM) | 2 µg/mL (≈ 5.74 µM) | 4 µg/mL (≈ 11.5 µM) | – | – | – | > 64 µg/mL | – | – |
| O=S(=O)(Nc1nc2cc(Br)ccc2s1)c1ccc(Cl)cc1 [Compound 101, N-(5-bromobenzo[d]thiazol-2-yl)-4-chlorobenzenesulfonamide] | > 64 µg/mL | 8 µg/mL (≈ 19.8 µM) | 32 µg/mL (≈ 79.3 µM) | – | – | – | – | – | – |
| O=C(CO)Nc1c(/C=C/c2ccc(Cl)cc2)[nH]c2cc(Br)ccc12 [Compound 95, (E)-N-(6-bromo-2-(4-chlorostyryl)-1H-indol-3-yl)-2-hydroxyacetamide] | 64 µg/mL (≈ 158 µM) | 32 µg/mL (≈ 78.9 µM) | 64 µg/mL (≈ 158 µM) | 100 to 1000 nM | 64 µg/mL (≈ 158 µM) | – | – | – | – |
| O=C(O)CCNC(=O)c1c(-c2cc3cc(Cl)ccc3[nH]2)[nH]c2cc(Br)ccc12 [Compound 205, 3-(6-Bromo-5′-chloro-1H,1′H-[2,2′-biindole]-3-carboxamido)propanoic Acid] | 32 µg/mL (≈ 69.5 µM) | 32 µg/mL (≈ 69.5 µM) | – | < 100 nM | – | – | > 64 µg/mL | 64 µg/mL (≈ 139 µM) | – |
| O=C(O)CCCC(=O)c1c(-c2cc3cc(Cl)ccc3[nH]2)[nH]c2cc(-c3cc4cc(Cl)ccc4[nH]3)ccc12 [Compound 108, 5-(5,5″-dichloro-1H,1′H,1″H-[2,2′:6′,2″-terindol]-3′-yl)-5-oxopentanoic Acid] | 2 µg/mL (≈ 3.77 µM) | 1 µg/mL (≈ 1.89 µM) | 2 µg/mL (≈ 3.77 µM) | > 1000 nM | 2 µg/mL (≈ 3.77 µM) | – | – | – | – |
| O=C(Nc1c(/C=C/c2ccc(Cl)cc2)[nH]c2cc(Br)ccc12)C(F)(F)F [Compound 93, (E)-N-(6-bromo-2-(4-chlorostyryl)-1H-indol-3-yl)-2,2,2-trifluoroacetamide] | > 64 µg/mL | 32 µg/mL (≈ 72.1 µM) | – | < 100 nM | 64 µg/mL (≈ 144 µM) | > 64 µg/mL | – | – | – |
| O=C(NCCC[n+]1ccc2ccccc2c1)c1c(-c2cc3cc(Cl)ccc3[nH]2)[nH]c2cc(Br)ccc12 [Compound 146, 2-(3-(6-bromo-5′-chloro-1H,1′H-[2,2′-biindole]-3-carboxamido)propyl)isoquinolin-2-ium] | – | 32 µg/mL | – | < 100 nM | 64 µg/mL | – | > 64 µg/mL | 32 µg/mL | – |
| Clc1cc2nc(-c3cc4ccc(Br)cc4[nH]3)[nH]c2cc1Cl [Compound 207, 2-(6-Bromo-1H-indol-2-yl)-5,6-dichloro-1H-benzo[d]imidazole] | 1 µg/mL (≈ 2.62 µM) | 0.5 µg/mL (≈ 1.31 µM) | 16 µg/mL (≈ 42 µM) | < 100 nM | 32 µg/mL (≈ 84 µM) | – | – | – | > 64 µg/mL |
| CC(=O)Nc1c(CCc2ccc(Cl)cc2)[nH]c2cc(Br)ccc12 [Compound 96, N-(6-Bromo-2-(4-chlorophenethyl)-1H-indol-3-yl)acetamide] | > 64 µg/mL | 64 µg/mL (≈ 163 µM) | > 64 µg/mL | > 1000 nM | > 64 µg/mL | – | – | – | – |
| CN1CCN(CCNC(=O)c2c(-c3cc4cc(Cl)ccc4[nH]3)[nH]c3cc(Br)ccc23)CC1 [Compound 72, 6-Bromo-5′-chloro-N-(2-(4-methylpiperazin-1-yl)ethyl)-1H,1′H-[2,2′-biindole]-3-carboxamide] | – | 8 µg/mL (≈ 15.5 µM) | 8 µg/mL (≈ 15.5 µM) | < 100 nM | 8 µg/mL (≈ 15.5 µM) | – | > 64 µg/mL | – | – |
| O=C(NCCC1CCC(O)CC1)c1c(/C=C/c2ccc(Cl)cc2)[nH]c2cc(Br)ccc12 (centres unmarked) [Compound 41, (E)-6-Bromo-2-(4-chlorostyryl)-N-(2-(4-hydroxycyclohexyl)ethyl)-1H-indole-3-carboxamide] | > 64 µg/mL | > 64 µg/mL | > 64 µg/mL | < 100 nM | > 64 µg/mL | – | – | – | – |
| CN1CCN(CCNC(=O)CCCC(=O)c2c(-c3cc4cc(Cl)ccc4[nH]3)[nH]c3cc(Br)ccc23)CC1 [Compound 106, 5-(6-bromo-5′-chloro-1H,1′H-[2,2′-biindol]-3-yl)-N-(2-(4-methylpiperazin-1-yl)ethyl)-5-oxopentanamide] | 8 µg/mL (≈ 13.7 µM) | 8 µg/mL (≈ 13.7 µM) | 8 µg/mL (≈ 13.7 µM) | < 100 nM | 8 µg/mL (≈ 13.7 µM) | – | – | – | > 64 µg/mL |
| CN(C)CCOc1cc(/C=C/c2cc3ccc(Br)cc3[nH]2)ccc1Cl [Compound 12, (E)-2-(5-(2-(6-bromo-1H-indol-2-yl)vinyl)-2-chlorophenoxy)-N,N-dimethylethanamine] | 4 µg/mL (≈ 9.53 µM) | 4 µg/mL (≈ 9.53 µM) | 4 µg/mL (≈ 9.53 µM) | 100 to 1000 nM | – | – | – | – | 16 µg/mL (≈ 38.1 µM) |
| CC(=O)Nc1c(/C=C/c2ccc(Cl)cc2)[nH]c2cc(Br)ccc12 [Compound 94, (E)-N-(6-bromo-2-(4-chlorostyryl)-1H-indol-3-yl)acetamide] | > 64 µg/mL | 32 µg/mL (≈ 82.1 µM) | > 64 µg/mL | 100 to 1000 nM | > 64 µg/mL | – | – | – | – |
| Clc1ccc2[nH]c(-c3cc4ccc(Br)cc4[nH]3)nc2n1 [Compound 208, 2-(6-Bromo-1H-indol-2-yl)-5-chloro-1H-imidazo[4,5-b]pyridine] | – | 8 µg/mL (≈ 23 µM) | – | > 1000 nM | 16 µg/mL (≈ 46 µM) | – | > 64 µg/mL | 8 µg/mL (≈ 23 µM) | – |
| COC(=O)C(=O)c1c(/C=C/c2ccc(Cl)cc2)[nH]c2cc(Br)ccc12 [Compound 86, (E)-Methyl 2-(6-bromo-2-(4-chlorostyryl)-1H-indol-3-yl)-2-oxoacetate] | 64 µg/mL (≈ 153 µM) | 64 µg/mL (≈ 153 µM) | > 64 µg/mL | < 100 nM | 64 µg/mL (≈ 153 µM) | – | – | – | – |

Source: patent publication US20180312493A1, “Antibiotic Compounds, Pharmaceutical Formulations Thereof And Methods And Uses Therefor” (Simon Fraser University, priority 2015, published 2018)
